Results: USRE39155E1, “Use of 1,3-oxathiolane nucleoside analogues in the treatment of hepatitis B” (Shire BioChem Inc., priority 1991, dated 2006)
≈ marks a conversion by molar mass, not a printed value. Like-named read-outs stand apart in the source and are kept apart here.

Columns and labels:
hepatitis B virus = experiment: General statement of activity against hepatitis B virus in vitro and in vivo
human hepatitis B virus = experiment: 2.2.15 cells (Hep G2 transfected with HBV genomic DNA), extracellular HBV DNA dot-blot after 10 day treatment; assay type: cell-based
Protocol: (ii) The method used for this test is described in detail in Korba et al. Antiviral Research 15, 217-228, 1992, and summarised below.
Hep G2 cells transfected with human hepatitis B virus genomic DNA (2.2.15 cells) were grown and maintained in RPMI-1640 culture medium containing 5% foetal bovine serum, 2 mM glutamine and 50 μg/ml gentamicin sulphate, and checked routinely for G418 resistance. Cultures of 2.2.15 cells were grown to confluence in 24 well tissue culture plates and maintained for 2 to 3 days in that condition prior to drug treatment.
These solutions were diluted as needed in culture medium.
The culture medium on the confluent cells was changed 24 hours prior to exposure to test compounds. During the 10 day treatment the culture medium was changed daily. After 10 days of treatment the culture medium was collected and frozen at −70° C. for HBV DNA analysis.
To analyse extracellular HBV DNA, 0.2 ml samples of culture medium were incubated for 20 minutes at 25° C. in 1M NaOH/10X SSC (1X SSC is 0.15M NaCl/0.015 M Sodium Citrate, pH 7.2) and then applied to nitrocellulose membranes presoaked in 20X SSC using a blotting apparatus. Samples were neutralised by washing twice with 0.5 ml of 1M Tris, pH 7.2/2M NaCl and once with 5 ml of 20X SSC. Filters were then rinsed in 2X SSC and baked at 80° C. for 1 hour under vacuum.
A purified 3.2 kb EcoRl HBV DNA fragment was labelled with [^32P]dCTP by nick translation and used as a probe to detect HBV DNA on the dot-blot by DNA hybridisation. After washing, the hybridised blot was dried and ^32P was quantified using an Ambis beta scanner.

Duck hepatitis B virus = experiment: Activity against Duck hepatitis B virus in primary duck hepatocyte cultures, DHBV DNA dot-blot; assay type: cell-based; settings: DHBV-infected primary duck hepatocytes
Protocol: The DNA from DHBV-infected hepatocytes was extracted and spotted onto a nitrocellular filter. […] The DNA was extracted from 6-cm cell culture dishes at various times post-plating. In the VC group, cells were harvested at 2, 6, 8, 10, 14, 18 and 20 days. Duplicate samples were spotted for days 14, 18 and 20. […] Drugs were added to the culture at 2 days post-plating and maintained throughout media changes every 2 days. The total intracellular DNA was extracted from cells using the standard phenol extraction method. […] The pellet of nucleic acid was washed with ethanol and dried. The DNA was dissolved in a solution containing 12.5 mM Tris HCl, pH 7.5, 10 mM EDTA, 30% glycerol and 0.01% bromophenol blue.

[1] = 2.2.15 cells, 10 day treatment, extracellular HBV DNA, read-out: IC50
[2] = Duck hepatitis B virus, Hepatocyte, read-out: IC50

SMILES: Nc1ccn(C2CSC(CO)O2)c(=O)n1 (racemic) [Racemate, cis-4-amino-1-(2-hydroxymethyl-1,3-oxathiolan-5-yl-(1H)-pyrimidin-2-one]
- activity against the hepatitis B virus (hepatitis B virus; listed as BCH-189): active both in vitro and in vivo
- activity against the hepatitis B virus (hepatitis B virus; listed as compound of formula (I)): inhibit the hepatitis B virus both in vitro and in vivo

SMILES: Nc1ncnc2c1ncn2[C@@H]1O[C@H](COP(=O)(O)O)[C@@H](O)[C@@H]1O [araAMP, adenosylarabinoside-5′-monophosphate]
- IC50 (human hepatitis B virus; [1]): 2.9 µM

SMILES: Nc1nc2c(ncn2[C@H]2CC[C@@H](CO)O2)c(=O)[nH]1 [ddG, 2′,3′-dideoxy-guanosine]
- IC50 (Duck hepatitis B virus; [2]): 0.07 µg/mL (≈ 0.279 µM)

SMILES: Nc1nc(N)c2ncn([C@H]3CC[C@@H](CO)O3)c2n1 [ddDAPR, 2,6-diaminopurine-9-β-D-2′,3′-dideoxyribofuranoside]
- IC50 (Duck hepatitis B virus): 0.07 µg/mL (≈ 0.28 µM)

SMILES: Nc1ccn([C@@H]2CS[C@H](CO)O2)c(=O)n1 [Compound 3TC, (2R,cis)-4-amino-1-(2-hydroxymethyl-1,3-oxathiolan-5-yl)-(1H)-pyrimidin-2-one]
- IC50 (human hepatitis B virus; Hepatitis B virus, HepG2, 240 h, 2.2.15 cells, 10 day treatment, extracellular HBV DNA, read-out: IC50): 5.6 µM
- activity against the hepatitis B virus (hepatitis B virus): active both in vitro and in vivo

SMILES: Nc1nc2c(ncn2[C@H]2C[C@@H](CO)[C@H](O)C2)c(=O)[nH]1 [cdG, carbocyclic deoxyguanosine]
- IC50 (human hepatitis B virus; [1]): 0.034 µM

SMILES: Nc1ccn([C@H]2CS[C@@H](CO)O2)c(=O)n1 (stereo in doubt) [Compound 3TC, (2R,cis)-4-amino-1-(2-hydroxymethyl-1,3-oxathiolan-5-yl)-(1H)-pyrimidin-2-one]
- IC50 (Duck hepatitis B virus; [2]): < 1 µg/mL

SMILES: Nc1ccn([C@H]2CC[C@@H](CO)O2)c(=O)n1 [ddC, 2′,3′-dideoxycytidine]
- IC50 (human hepatitis B virus; Hepatitis B virus, HepG2, 240 h, read-out: IC50 μM): 2.2 µM
